In PubChem BioAssay AID330 (DTP/NCI, 2004):
Several values for one entry are separate records, joined by “and”; a condition that tells them apart may be missing. Equal entries are not always repeated. Inconclusive results and toxic doses are left out. Rule for the calls: active = survival T/C of 150% or more; inactive = T/C below 125% in these data.

Tested on: P388 leukemia ip, CD2F1 mice, survival T/C
Test: NCI In Vivo Anticancer Drug Screen. Data for tumor model P388 Leukemia (intraperitoneal) in CD2F1 (CDF1) mice
Settings: endpoint: median survival time, higher = longer survival
How it was run: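 Mice carrying the transplanted tumor received test compound or vehicle. Survival was recorded in each group, and the value is the treated-group measurement divided by that of the vehicle-treated control group.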

[1] = dose: 12.5 mg/kg/injection, schedule: Q01DX009 (ip), vehicle: saline with Tween-80
[2] = dose: 25.0 mg/kg/injection, schedule: Q01DX009 (ip), vehicle: saline with Tween-80
[3] = dose: 50.0 mg/kg/injection, schedule: Q01DX009 (ip), vehicle: saline with Tween-80
[4] = dose: 100.0 mg/kg/injection, schedule: Q01DX009 (ip), vehicle: saline with Tween-80

Measured: T/C

CSC(=S)N/N=C(/C)CC(C)C
inactive: [1] 105 % of control | [2] 120 % of control | [3] 100 % of control

COc1nc(N)nc(Cl)n1
inactive: [1] 105 % of control | [2] 107 % of control | [3] 101 % of control | [4] 98 % of control

O=C1c2cc(Cl)ccc2NC(O)c2cccn21 (stereo unspecified)
inactive: dose: 0.1 mg/kg/injection, schedule: Q01DX005 (ip), vehicle: water 93 % of control | dose: 0.2 mg/kg/injection, schedule: Q01DX005 (ip), vehicle: water 89 % of control | dose: 0.4 mg/kg/injection, schedule: Q01DX005 (ip), vehicle: water 90 % of control | dose: 0.8 mg/kg/injection, schedule: Q01DX005 (ip), vehicle: water 98 % of control | dose: 1.6 mg/kg/injection, schedule: Q01DX005 (ip), vehicle: water 98 % of control | dose: 5.0 mg/kg/injection, schedule: Q01DX005 (ip), vehicle: distilled water + Tween-80 95 % of control | dose: 10.0 mg/kg/injection, schedule: Q01DX005 (ip), vehicle: distilled water + Tween-80 101 % of control | dose: 20.0 mg/kg/injection, schedule: Q01DX005 (ip), vehicle: distilled water + Tween-80 95 % of control | dose: 40.0 mg/kg/injection, schedule: Q01DX005 (ip), vehicle: distilled water + Tween-80 92 % of control | dose: 80.0 mg/kg/injection, schedule: Q01DX005 (ip), vehicle: distilled water + Tween-80 93 % of control

O=C(Nc1ccc(Cl)cc1)O/N=C/c1ccc2c(c1)OCO2
inactive: [3] 93 % of control | [4] 91 % of control | dose: 200.0 mg/kg/injection, schedule: Q01DX009 (ip), vehicle: saline with Tween-80 86 % of control

COc1cc(CCCNC(C)=O)cc(OC)c1OC
inactive: dose: 25.0 mg/kg/injection, schedule: Q01DX005 (ip), vehicle: water 105 % of control | dose: 50.0 mg/kg/injection, schedule: Q01DX005 (ip), vehicle: water 98 % of control | dose: 100.0 mg/kg/injection, schedule: Q01DX005 (ip), vehicle: water 96 % of control | dose: 200.0 mg/kg/injection, schedule: Q01DX005 (ip), vehicle: water 98 % of control

O=C1NC2(CCCCC2)C(=O)N1CCl
inactive: dose: 6.25 mg/kg/injection, schedule: Q01DX005 (ip), vehicle: saline 100 % of control | dose: 12.5 mg/kg/injection, schedule: Q01DX005 (ip), vehicle: saline 101 % of control | dose: 25.0 mg/kg/injection, schedule: Q01DX005 (ip), vehicle: saline 108 % of control | dose: 30.0 mg/kg/injection, schedule: Q01DX005 (ip), vehicle: saline 104 % of control | dose: 50.0 mg/kg/injection, schedule: Q01DX005 (ip), vehicle: saline 103 % of control | dose: 60.0 mg/kg/injection, schedule: Q01DX005 (ip), vehicle: saline 122 % of control | dose: 100.0 mg/kg/injection, schedule: Q01DX005 (ip), vehicle: saline 112 % of control | dose: 120.0 mg/kg/injection, schedule: Q01DX005 (ip), vehicle: saline 118 % of control | dose: 240.0 mg/kg/injection, schedule: Q01DX005 (ip), vehicle: saline 114 % of control

CN1CCCSC1=S
inactive: dose: 6.25 mg/kg/injection, schedule: Q01DX009 (ip), vehicle: Klucel (hydroxypropylcellulose) (HPC) 111 % of control | dose: 12.5 mg/kg/injection, schedule: Q01DX009 (ip), vehicle: Klucel (hydroxypropylcellulose) (HPC) 97 % of control | dose: 25.0 mg/kg/injection, schedule: Q01DX009 (ip), vehicle: Klucel (hydroxypropylcellulose) (HPC) 106 % of control

O=C1CC([Se]c2ccccc2)C(=O)N1 (stereo unspecified)
inactive: dose: 6.25 mg/kg/injection, schedule: Q04DX003 (ip), vehicle: Klucel (hydroxypropylcellulose) (HPC) 99 % of control | dose: 12.5 mg/kg/injection, schedule: Q04DX003 (ip), vehicle: Klucel (hydroxypropylcellulose) (HPC) 102 % of control and 104 % of control | dose: 25.0 mg/kg/injection, schedule: Q04DX003 (ip), vehicle: Klucel (hydroxypropylcellulose) (HPC) 100 % of control and 107 % of control | dose: 50.0 mg/kg/injection, schedule: Q04DX003 (ip), vehicle: Klucel (hydroxypropylcellulose) (HPC) 100 % of control and 105 % of control

c1csc(-c2n[se]c(-c3cccs3)n2)c1
inactive: dose: 12.5 mg/kg/injection, schedule: Q04DX002 (ip), vehicle: saline with Tween-80 99 % of control | dose: 25.0 mg/kg/injection, schedule: Q04DX002 (ip), vehicle: saline with Tween-80 100 % of control

COc1ncnc2c1nnn2C1OC(CO)C(O)C1O (stereo unspecified)
inactive: dose: 25.0 mg/kg/injection, schedule: Q04DX003 (ip), vehicle: saline 96 % of control | dose: 50.0 mg/kg/injection, schedule: Q04DX003 (ip), vehicle: saline 105 % of control | dose: 100.0 mg/kg/injection, schedule: Q04DX003 (ip), vehicle: saline 100 % of control | dose: 200.0 mg/kg/injection, schedule: Q04DX003 (ip), vehicle: saline 109 % of control
